Here are results for one substance from publication PMC10586543 (Advanced functional materials, 2023).

In one experiment the target is human α-thrombin (Homo sapiens, UniProt P00734). In words: In vitro specificity reaction with off-target protease. As to conditions: free peptide; 13.5 nM human α-thrombin; TCNB buffer; 37 °C, 1 h; fluorescence (Figure S2).
In another experiment the target is human recombinant MMP-9 (Homo sapiens, UniProt P14780). The description is as above. As to conditions: free peptide; 15 nM human recombinant MMP-9; TCNB buffer; 37 °C, 1 h; fluorescence (Figure S2).
human recombinant MMP-9, sequence (P14780 107-444 limits assumed): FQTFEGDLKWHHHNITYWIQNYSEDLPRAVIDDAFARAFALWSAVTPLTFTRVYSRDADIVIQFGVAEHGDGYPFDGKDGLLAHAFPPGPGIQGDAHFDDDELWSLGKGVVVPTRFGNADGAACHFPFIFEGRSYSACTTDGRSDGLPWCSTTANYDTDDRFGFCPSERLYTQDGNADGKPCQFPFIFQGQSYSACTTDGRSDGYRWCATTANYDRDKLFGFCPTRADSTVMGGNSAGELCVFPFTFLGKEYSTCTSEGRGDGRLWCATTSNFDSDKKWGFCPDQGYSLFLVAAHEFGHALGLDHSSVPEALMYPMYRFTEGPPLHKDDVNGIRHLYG

Take “Biotin-GGSGG-K(5FAM)-QEVYGAMP-K(CPQ2)-C-NH2 [calpain substrate peptide]”: the “activation after incubation with α-thrombin” value on human α-thrombin is “did not activate”. Moreover, the “activation after incubation with MMP9” value at human recombinant MMP-9 is “did not activate”.
